This note sets out measurements from patent publication US9937174B2, “Combinations of histone deacetylase inhibitors and bendamustine” (priority 2014, dated 2018).

SMILES strings stand for the structures. Where two headings read alike, the source gives them in different places.

Assay [1] concerns Hut-78. Put plainly: cells. The assay is classed as cell-based. To be noted: Homo sapiens. How it is done: (§1) Ricolinostat was administered to each cell line at various concentrations (0.01, 0.1, 1, 5, and 10 μM), and cell viability was measured at 24, 48, and 72 hours.
(§2) Bendamustine was administered to each cell line at various concentrations (25, 50, 100, 200, and 300 μM), and cell viability was measured at 24 and 48 hours.
(§3) The effect of the drugs on each cell line was determined, and the combination index (CI) was measured. A CI<1 means synergy; a CI=1 means an additive effect; and a CI>1 means antagonism.

Assay [2] concerns Jeko-1. The assay is described as follows: cells. To be noted: Homo sapiens. The assay is classed as cell-based. The protocol:
as §1, §2, §3

In assay [3] the test system is WSU-NHL. Put plainly: cells. To be noted: Homo sapiens. Type of assay: cell-based. How it is done:
as §1, §2, §3

The subject of assay [4] is lymphoma cell lines. The assay is described as follows: cells. Type of assay: cell-based.
Assay [5] concerns RL. The assay is described as follows: MTT cell viability in RL cells. Type of assay: cell-based. To be noted: Homo sapiens, 48 h. How it is done:
(§4) HDAC6 protein is expressed in all cell lines examined (FIG. 1A). Ricolinostat was administered to each cell line at various concentrations (0.01, 0.1, 1, 5, and 10 μM), and cell viability was measured at 24, 48, and 72 hours.

Assay [6] deals with Granta-519. The assay is described as follows: cells. The assay is classed as cell-based. To be noted: Homo sapiens, MTT. How it is done: as §1
The subject of assay [7] is Karpas-299. The assay is described as follows: MTT cell viability in Karpas-299 cells. Conditions: Homo sapiens, Karpas-299, 48 h. The assay is classed as cell-based. The protocol: as §4
The subject of assay [8] is lymphoma cell lines (WSU-NHL, Hut-78, Jeko-1). Type of assay: cell-based. To be noted: flow cytometry, 24-48 h. The protocol: In FIG. 5A WSU-NHL cells were treated with either ricolinostat, bendamustine, or ricolinostat and bendamustine at the indicated concentrations. After 24 hours, the cells were fixed and stained with propidium iodide, and were analyzed by flow cytometry. […] This effect was enhanced by the combination with bendamustine (FIGS. 5C and 5D).

Assay [9] relates to WSU-NHL, Hut-78 and Jeko-1 cells. Put plainly: Methylcellulose clonogenic assay. Type of assay: cell-based. Conditions: 24 h liquid culture, colonies counted after 10 days. The protocol:
FIG. 2D and FIG. 2E show effects of ricolinostat alone and in combination with bendamustine on clonogenic survival. WSU-NHL, Hut-78 and Jeko-1 cells were first incubated with ricolinostat alone (1, 5, 10 μM) (C) and subsequently in combination with bendamustine (D) in liquid culture for 24 h. Treated cells were incubated in methylcellulose and colonies consisting of more 50 cell were counted after 10 days. The relative percentage with respect to control cells are shown and represent the mean±SD of three separate experiments.

Assay [10] deals with T1, HDAC6 (Homo sapiens, UniProt Q9UBN7).
T1 construct: endogenous in cells; host or cells: WSU-NHL, Hut-78, Jeko-1 lymphoma cell lines
T1 sequence (Q9UBN7 1-1215): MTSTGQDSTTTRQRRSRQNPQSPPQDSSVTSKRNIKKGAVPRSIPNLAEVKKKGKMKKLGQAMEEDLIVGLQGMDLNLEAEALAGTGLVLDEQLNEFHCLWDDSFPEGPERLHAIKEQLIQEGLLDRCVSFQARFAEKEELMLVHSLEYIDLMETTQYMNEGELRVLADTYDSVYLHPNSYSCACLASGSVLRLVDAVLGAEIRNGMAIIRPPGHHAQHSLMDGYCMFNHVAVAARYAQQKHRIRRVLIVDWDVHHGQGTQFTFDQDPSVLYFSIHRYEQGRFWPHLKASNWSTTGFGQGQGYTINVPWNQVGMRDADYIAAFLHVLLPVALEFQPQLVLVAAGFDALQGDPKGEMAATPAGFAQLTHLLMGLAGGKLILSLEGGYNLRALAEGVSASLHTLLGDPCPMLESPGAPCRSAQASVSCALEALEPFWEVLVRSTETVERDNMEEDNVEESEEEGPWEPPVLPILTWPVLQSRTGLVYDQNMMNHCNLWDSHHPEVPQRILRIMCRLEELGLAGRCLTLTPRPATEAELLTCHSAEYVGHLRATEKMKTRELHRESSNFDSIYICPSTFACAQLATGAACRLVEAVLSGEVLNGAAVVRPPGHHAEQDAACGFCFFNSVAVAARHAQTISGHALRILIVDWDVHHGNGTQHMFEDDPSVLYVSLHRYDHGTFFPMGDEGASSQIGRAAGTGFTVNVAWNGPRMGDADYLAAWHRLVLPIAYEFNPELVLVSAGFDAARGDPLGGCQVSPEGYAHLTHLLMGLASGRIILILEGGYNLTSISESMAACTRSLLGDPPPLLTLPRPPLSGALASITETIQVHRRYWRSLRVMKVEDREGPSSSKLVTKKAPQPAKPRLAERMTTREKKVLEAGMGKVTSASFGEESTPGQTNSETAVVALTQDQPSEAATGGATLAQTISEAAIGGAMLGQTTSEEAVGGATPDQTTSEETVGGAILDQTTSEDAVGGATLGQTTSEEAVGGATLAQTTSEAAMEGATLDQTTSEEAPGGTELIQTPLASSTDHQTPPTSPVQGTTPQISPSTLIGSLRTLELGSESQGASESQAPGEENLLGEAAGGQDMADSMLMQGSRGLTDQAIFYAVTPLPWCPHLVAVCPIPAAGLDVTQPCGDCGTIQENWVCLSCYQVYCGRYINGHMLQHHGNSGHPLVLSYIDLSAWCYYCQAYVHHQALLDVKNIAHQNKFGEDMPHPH
The assay is described as follows: Western blot of HDAC6 and acetylated α-tubulin. The assay is classed as cell-based. Conditions: 24 h. An excerpt:
Tubulin was used to normalize protein loading.

Assay [11] concerns IL-10. The assay is described as follows: IL-10 secretion by ELISA.
Procedure: IL-10 secretion was analyzed by ELISA. All data are means (±SD) of at least three separate experiments each performed in duplicate.
The test system of assay [12] is lymphoma cell lines (WSU-NHL, Hut-78, Jeko-1). Put plainly: Cell cycle analysis by flow cytometry. Conditions: 24 h. For orientation: Flow cytometry measures light scatter and fluorescence of single cells or particles in a stream.
Procedure: The bars of M1, M2, M3 and M4 indicate the sub-G0/G1, G0/G1, S and G2/M phases, respectively.
All values represent the mean±SD of three independent experiments.
(§5) Apoptosis, reactive oxygen species (ROS), cell cycle analysis, and Bcl-2 protein expression were measured by flow cytometry.
Assay [13] relates to reactive oxygen species (ROS). Put plainly: ROS generation by flow cytometry and Trx1 western blot. Conditions: 24 h and 48 h.
Procedure: All data are expressed as the mean±SD of triplicate culture.
H2O2 was used as a positive control.
as §5
The subject of assay [14] is tubulin polymerization. Put plainly: Tubulin polymerization by α-tubulin staining and flow cytometry. Conditions: 24 hours, intensity of fluorescence.
Procedure: Data are expressed as mean±SD and were obtained from three independent experiments performed in triplicate.
Lymphoma cells were treated for 24 hours with ricolinostat alone and in combination with bendamustine along with the microtubule destabilizer nocodazole (1 μM) and the microtubule stabilizer paclitaxel (100 nM). This was followed by whole cell-based quantitative measurement of tubulin polymerization using alpha-tubulin staining.

With `Cn1c(CCCC(=O)O)nc2cc(N(CCCl)CCCl)ccc21` [bendamustine, 4-[5-[Bis(2-chloroethyl)amino]-1-methylbenzimidazol-2-yl]butanoic acid], the IC50 – broadly, the concentration at which inhibition is half-maximal – in assay [1] (HuT78, 24 h, read-out: IC50 at 24 hours) is 144 µM; in [2] (JeKo-1, 24 h, read-out: IC50 at 24 hours), 127 µM; in [3] (24 h, read-out: IC50 at 24 hours), 168 µM; in [4] (24 h, read-out: range of IC50) it was 127 to 168 µM.

Turning to `O=C(CCCCCCNC(=O)c1cnc(N(c2ccccc2)c2ccccc2)nc1)NO` [ricolinostat, 2-(diphenylamino)-N-(7-(hydroxyamino)-7-oxoheptyl)pyrimidine-5-carboxamide], the IC50 worked out at 1.51 µM in assay [1] (HuT78, 48 h, Hut-78, 48 h, MTT, read-out: IC50); 1.5 µM in assay [1] (HuT78, 48 h, Hut-78, 48 hours, MTT, read-out: IC50); 3.42 µM in assay [2] (Jeko-1, 48 h, MTT, read-out: IC50); 8.65 µM in assay [3] (24 h, MTT, read-out: IC50); 1.97 µM in assay [3] (48 h, MTT, read-out: IC50); 3.37 µM in assay [5]. The IC50 in assay [6] (Granta-519, 24 h) is 64 µM; in assay [6] (Granta-519, 48 h), 20 µM; in [7], 4.82 µM; in assay [4] (lymphoma cell lines, exposure 24-72 hours, read-out: IC50 values ranging) it was 0.17 to 8.65 µM; in assay [4] (panel of six lymphoma cell lines, 24 and 48 h, read-out: IC50 values ranging), 1.51 to 64 µM. In addition, the induction of apoptosis entry in assay [8] was “induced apoptosis in all cell lines examined in time- and dose dependent manner”. The “clonogenic survival / colony formation” value in assay [9] was “reduced clonogenic survival in a dose dependent manner”. Moreover, the “HDAC6 expression and acetylation level of α-tubulin” value in assay [10] was “reduced HDAC6 expression and induced the acetylation level of α-tubulin”. The IL-10 secretion entry in assay [11] is “down-regulation of IL-10”. Further, the cell cycle distribution entry in assay [12] is “increase in the percentage of cells in the G0/G1 phase and a decrease in the G2/M phase”. Also, in [13], the ROS generation result is “induced an increase of ROS production at 24 h, which further increased after 48 h”. The tubulin polymerization result in assay [14] was “induced tubulin polymerization”.
